Target: T1, Recombinant human GR (Homo sapiens, UniProt P04150)
T1 construct: purchased Invitrogen P2816
T1 sequence (P04150 1-777): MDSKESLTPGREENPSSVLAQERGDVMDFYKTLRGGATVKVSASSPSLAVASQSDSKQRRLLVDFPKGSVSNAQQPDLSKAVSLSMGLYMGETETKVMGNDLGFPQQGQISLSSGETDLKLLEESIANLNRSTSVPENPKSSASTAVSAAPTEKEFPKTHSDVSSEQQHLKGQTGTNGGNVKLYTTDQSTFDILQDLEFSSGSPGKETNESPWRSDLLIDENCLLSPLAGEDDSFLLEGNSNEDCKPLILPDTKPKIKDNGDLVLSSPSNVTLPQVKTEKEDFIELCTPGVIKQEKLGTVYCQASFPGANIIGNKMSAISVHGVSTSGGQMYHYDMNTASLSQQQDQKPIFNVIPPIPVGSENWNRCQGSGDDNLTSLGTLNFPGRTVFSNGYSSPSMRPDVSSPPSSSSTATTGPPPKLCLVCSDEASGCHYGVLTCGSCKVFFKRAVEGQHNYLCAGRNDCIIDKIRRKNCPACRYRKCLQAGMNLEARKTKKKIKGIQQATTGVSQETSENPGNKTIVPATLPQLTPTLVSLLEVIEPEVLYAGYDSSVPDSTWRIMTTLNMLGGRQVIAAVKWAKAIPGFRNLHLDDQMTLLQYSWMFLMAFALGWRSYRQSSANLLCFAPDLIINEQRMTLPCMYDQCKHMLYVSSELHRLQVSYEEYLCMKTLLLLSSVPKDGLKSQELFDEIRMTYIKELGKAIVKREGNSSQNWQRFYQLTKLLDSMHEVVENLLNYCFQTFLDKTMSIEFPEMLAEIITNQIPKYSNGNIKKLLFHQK
Assay: Evaluation test for binding activity to glucocorticoid receptor: receptor competitor assay by fluorescence polarization (Invitrogen GR competitor assay kit, cat No. P2816)
Settings: 20 μM test compound solution, 10 μL per well plus 5 μL 4×GS1 and 5 μL 4×GR solution; room temperature 2 to 4 hours; a ratio of 100% or more is indicated by 100%
Method: A detailed explanation of this matter will be described in the section of “Pharmacological Test” in Examples described below. In order to find the usefulness of the present compound as a pharmaceutical, a glucocorticoid receptor competitor assay was carried out by a fluorescence polarization method by using a glucocorticoid receptor competitor assay kit (manufactured by Invitrogen, cat No. P2816) to study the glucocorticoid receptor binding activity of the present compound.
1. Evaluation Test for Binding Activity to Glucocorticoid Receptor (hereinafter referred to as “GR”)
In order to evaluate a binding activity to GR, a receptor competitor assay was carried out by a fluorescence polarization method. In the assay, a GR competitor assay kit (manufactured by Invitrogen, cat No. P2816) was used, and a procedure was carried out according to the protocol attached to the kit. Hereinafter, the specific method will be described.
(Preparation of Reagents)
GR screening buffer: A buffer containing 10 mM potassium phosphate (pH 7.4), 20 mM sodium molybdate (Na2MoO4), 0.1 mM ethylene diamine tetraacetic acid (EDTA), 5 mM dithiothreitol (DTT), 0.1 mM stabilizing peptide and 2% dimethylsulfoxide was prepared.
4×GS1 solution: Fluormone™ GS1, which is a fluorescent glucocorticoid ligand, was diluted with GR screening buffer, whereby a 4 nM solution was prepared.
4×GR solution: Recombinant human GR was diluted with GR screening buffer, whereby a 16 nM solution was prepared.
(Preparation of Test Compound Solution)
After a test compound was dissolved in dimethylsulfoxide, the resulting solution was diluted with GR screening buffer, whereby a 20 μM test compound solution was prepared.
(Test Method and Measurement Method)
1) The test compound solution was added in an amount of 10 μL into each well of a 384-well plate, and then, 4×GS1 solution and 4×GR solution were added in an amount of 5 μL into each well, respectively.
2) The plate was incubated in a dark place at room temperature for 2 to 4 hours.
3) By using a multimode plate reader, Analyst™ HT (manufactured by LJL Biosystems), fluorescence polarization of each well was measured. As the blank, a well containing GR screening buffer in place of the test compound and 4×GS1 solution was used.
4) The same procedure as that in the above 1) to 3) was carried out except that GR screening buffer was used in place of the test compound solution, and the obtained result was taken as the negative control.
5) The same procedure as that in the above 1) to 3) was carried out except that 2 mM dexamethasone was used in place of the test compound solution, and the obtained result was taken as the positive control.
(Calculation Equation of GR Binding Ratio)
A GR binding ratio (%) was calculated from the following equation. GR binding ratio(%)=100×[1−(fluorescence polarization of test compound solution−fluorescence polarization of positive control solution)/(fluorescence polarization of negative control solution−fluorescence polarization of positive control solution)] (Test Results and Discussion)

SMILES: COc1ccccc1NCc1c(-c2ccc(OC(=O)Nc3cccnc3)cc2OC)ccc2c1C(C)=CC(C)(C)N2 [Compound 4-3, 5-(2-Methoxyphenylaminomethyl)-6-[2-methoxy-4-(pyridin-3-ylaminocarbonyloxy)phenyl]-2,2,4-trimethyl-1,2-dihydroquioline]
- inhibition at 20 µM: 91%
